Laboratory results taken from patent US20230337677A1, “ARYL AND PYRIDYL AMIDE PESTICIDES AND COMPOSITIONS THEREOF” (University of Florida Research Foundation, Incorporated, priority 2019, published 2023).

Experiments:
[1] = tested on: Aedes aegypti mosquitoes, insecticide-susceptible Orlando strain; format: in vivo; settings: for 1 h % Repellency, 100 μg/cm^2: screened at 100 μg/cm^2, strain not given; for 1 h Repellency EC50, μg/cm^2: (OR); for vapor repellency / mortality, statement in words (Example 8): structure-activity analysis of Table 2
Summary of the method: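 Sixteen female mosquitoes per glass tube facing netting-shielded filter paper treated with acetone solutions (30-0.01 μg/ml; screen at 100 μg/cm^2), no contact. Proportion on treated side scored up to 60 min, then flight-out checked 30 min; mortality after 24 hr constant exposure.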

[2] = tested on: Aedes aegypti strain Puerto Rico (PR, resistant to permethrin); assay: Topical toxicity (24 hour mortality), Ae. aegypti Puerto Rico; format: in vivo; settings: for Ae. aegypti RR (resistance ratio): 24 h LD50 resistant strain (PR)/24 h LD50 susceptible strain (OR); for Ae. aegypti PR LD50: topical application, 24 h mortality, female adults, permethrin-resistant Puerto Rico strain
Experimental: (§1) The Aedes aegypti strains Orlando (sensitive) as well as the Puerto Rico (PR, resistant to permethrin) were used. The Anopheles gambiae (G3 sensitive strain, as well as Akron kdr (Akdr) strain, resistant to pyrethroids were also assessed. The larvae were provided by the USDA, Gainesville Fl, and raised in a pan with tap water maintained at 28° C. Larvae were fed a ground liver and yeast mixture, and pupae were placed in emergence cages. Adults were held at 28° C. and provided with cotton balls soaked in 10% sugar water for rearing and for all bioassays.
(§2) Female adults from 3 to 6 days were used for the experiments. The drug was dissolved in ethanol and then applied with a micro-applicator on the thorax, between the legs: 200 nL of drug per female mosquito, with different concentrations of the drug; 10 mosquitos were treated together per concentration per replicate, and put together in a small container with free access to sweet water. Mortality, i.e. no visible movement, was assessed 24 hours after treatment. Every compound was assessed on at least 3 different cohorts of mosquitoes, and the LD50 values and slopes were determined with Probit analysis, corrected with Abbott's formula.

[3] = tested on: Anopheles gambiae Akron kdr (Akdr) strain, resistant to pyrethroids; assay: Topical toxicity (24 hour mortality), An. gambiae Akdr; format: in vivo; settings: for An. gambiae RR (resistance ratio): 24 h LD50 resistant strain (AKDR)/24 h LD50 susceptible strain (G3); for An. gambiae AKDR LD50: topical application, 24 h mortality, female adults, pyrethroid-resistant Akdr strain
Experimental: as §1, §2

[4] = tested on: Aedes aegypti mosquitoes, insecticide-susceptible Orlando strain; assay: whole plant or invertebrate; settings: 24 h; for mortality at 100 µg/cm2: read-out: 24 h % Mortality, 100 μg/cm^2
[5] = tested on: Anopheles gambiae G3 sensitive strain; assay: Topical toxicity (24 hour mortality), An. gambiae G3; format: in vivo; settings: topical application, 24 h mortality, female adults, susceptible strain G3
Experimental: as §1, §2

[6] = tested on: Aedes aegypti strain Orlando (sensitive); assay: Topical toxicity (24 hour mortality), Ae. aegypti Orlando; format: in vivo; settings: topical application, 24 h mortality, female adults, susceptible Orlando strain
Experimental: as §1, §2

[7] = tested on: Aedes aegypti mosquitoes, insecticide-susceptible Orlando strain; settings: 24 h; LC50 (OR)

Row | Structure (SMILES) | 1 h % Repellency, 100 μg/cm^2 ([1]; 1 h) | An. gambiae AKDR LD50 [3] | mortality at 100 µg/cm2 [4] | An. gambiae G3 LD50 [5] | Ae. aegypti OR LD50 [6] | other results
1 | O=C(Nc1cc(Cl)nc(Cl)c1)C(F)F [GMR028] | 12% | 28.2 ng/mg | 59% | 43.1 ng/mg | 266 ng/mg | Ae. aegypti RR (resistance ratio) [2]: 3.2; Ae. aegypti PR LD50 [2]: 854 ng/mg; An. gambiae RR (resistance ratio) [3]: 0.7
2 | O=C(Nc1cc(Cl)nc(Cl)c1)C(F)(F)F [GMR029] | 42% | 45.3 ng/mg | 24% | 27.9 ng/mg | 190 ng/mg | Ae. aegypti RR (resistance ratio) [2]: 1.3; Ae. aegypti PR LD50 [2]: 238 ng/mg; An. gambiae RR (resistance ratio) [3]: 1.6; 24 h LC50, μg/cm^2 [7]: 181 μg/cm^2
3 | O=C(Nc1cc(Cl)nc(C(F)(F)F)c1)C(F)(F)C(F)(F)C(F)(F)C(F)(F)C(F)(F)F [GMR055] |  | 4.0 ng/mg |  | 11.0 ng/mg | 10.5 ng/mg | Ae. aegypti RR (resistance ratio) [2]: 0.6; Ae. aegypti PR LD50 [2]: 5.90 ng/mg; An. gambiae RR (resistance ratio) [3]: 0.4
4 | O=C(Nc1cc(Br)nc(Br)c1)C(F)(F)C(F)(F)C(F)(F)C(F)(F)C(F)(F)F [GMR056] |  | 3.2 ng/mg |  | 8.6 ng/mg | 15 ng/mg | Ae. aegypti RR (resistance ratio) [2]: 0.8; Ae. aegypti PR LD50 [2]: 12.10 ng/mg; An. gambiae RR (resistance ratio) [3]: 0.4
5 | O=C(Nc1c(F)c(F)nc(F)c1F)C(F)(F)C(F)(F)C(F)(F)C(F)(F)C(F)(F)F [GMR057] |  | 15.7 ng/mg |  | 28.4 ng/mg | 20 ng/mg | Ae. aegypti RR (resistance ratio) [2]: 0.4; Ae. aegypti PR LD50 [2]: 8.90 ng/mg; An. gambiae RR (resistance ratio) [3]: 0.6
6 | O=C(Nc1ccnc(Br)c1)C(F)(F)C(F)(F)C(F)(F)C(F)(F)C(F)(F)F [GMR069] | −12% | 3425 ng/mg | 13% |  | 2261 ng/mg | 
7 | O=C(Nc1cc(C(F)(F)F)ccn1)C(F)(F)C(F)(F)C(F)(F)F [GMR085] | 70% | >50 ng/mg | 13% | >100 ng/mg | >6000 ng/mg | 1 h Repellency EC50, μg/cm^2 ([1]; 1 h): 49 μg/cm^2
8 | O=C(OCc1c(F)c(F)cc(F)c1F)C(F)(F)C(F)(F)C(F)(F)F [GMR090] | −12% | >100 ng/mg | 9% | >100 ng/mg | >1000 ng/mg | 
9 | CN(C(=O)C(F)(F)C(F)(F)C(F)(F)F)c1cc(Cl)nc(Cl)c1 [GMR095] | 84% | 775.00 ng/mg | 100% | 1300.00 ng/mg | 1576 ng/mg | 1 h Repellency EC50, μg/cm^2 ([1]; 1 h): 10 μg/cm^2; An. gambiae RR (resistance ratio) [3]: 0.6; 24 h LC50, μg/cm^2 [7]: 14 μg/cm^2
10 | O=C(Nc1cc(Cl)cc(Cl)c1)C(F)(F)C(F)(F)OC(F)(F)F [GMR099] | 74% | >1000 ng/mg | 81% | >1000 ng/mg | 3279 ng/mg | 
11 | O=C(Nc1cc(F)c(F)c(F)c1)C(F)(F)C(F)(F)OC(F)(F)F [GMR100] |  | >1000 ng/mg |  | >1000 ng/mg | 2374 ng/mg | 1 h Repellency EC50, μg/cm^2 ([1]; 1 h): 3 μg/cm^2; knockdown in 1 hr repellency test (XXkd) ([1]; screened at 10 μg/cm^2, 1 h, out of 16 females): 10; mortality at 10 µg/cm2 ([4]; read-out: 24 h % Mortality): 21%; 24 h LC50, μg/cm^2 [7]: 15 μg/cm^2
12 | N#CC(F)(F)C(=O)Nc1cc(F)c(F)c(F)c1 [GMR102] | 74% | >100 ng/mg | 22% | >100 ng/mg | 2164 ng/mg | 1 h Repellency EC50, μg/cm^2 ([1]; 1 h): 28 μg/cm^2; vapor repellency / mortality, statement in words (Example 8) [1]: moderate repellency and toxicity
13 | O/N=C(\Nc1cc(Cl)nc(Cl)c1)C(F)(F)C(F)(F)C(F)(F)F [GMR104] | 12% |  | 0% | >100 ng/mg | 393 ng/mg | 
14 | O=C(NCc1cc(Cl)nc(Cl)c1)C(F)(F)C(F)(F)C(F)(F)F [GMR107] | 50% |  | 0% |  | 2173 ng/mg | 
15 | O=C(Nc1c(Cl)cc(C(F)(F)F)cc1Cl)C(F)(F)C(F)(F)F [GMR138, N-(2,6-dichloro-4-(trifluoromethyl)phenyl)-2,2,3,3,3-pentafluoropropanamide] | 66% | 90.00 ng/mg | 100% | 120.00 ng/mg | 57.6 ng/mg | 1 h Repellency EC50, μg/cm^2 ([1]; 1 h): 5.3 μg/cm^2; An. gambiae RR (resistance ratio) [3]: 0.8; 24 h LC50, μg/cm^2 [7]: 0.3 μg/cm^2
16 | CC(C(=O)Nc1cc(F)c(F)c(F)c1)(C(F)(F)F)C(F)(F)F [GMR139] | 24% |  | 100% |  |  | 1 h Repellency EC50, μg/cm^2 ([1]; 1 h): 6.9 μg/cm^2; vapor repellency / mortality, statement in words (Example 8) [1]: reduced repellency; 24 h LC50, μg/cm^2 [7]: 16.6 μg/cm^2
17 | O=C(Nc1c(Cl)cc(C(F)(F)F)cc1Cl)C(F)(F)F [GMR149] | 44% |  | 81% |  | 251 ng/mg | 

Row | Structure (SMILES) | 1 h % Repellency, 100 μg/cm^2 ([1]; 1 h) | An. gambiae AKDR LD50 [3] | mortality at 100 µg/cm2 [4] | An. gambiae G3 LD50 [5] | Ae. aegypti OR LD50 [6] | other results
18 | CC(C)(C)OC(=O)N(C(=O)C(F)(F)C(F)(F)F)c1c(Cl)cc(C(F)(F)F)cc1Cl [GMR150] |  |  | 100% |  | 629 ng/mg | knockdown in 1 hr repellency test (XXkd = number of insects incapacitated out of 16 females) ([1]; 100 μg/cm^2, 1 h, out of 16 females): 11; 24 h LC50, μg/cm^2 [7]: 12 μg/cm^2
19 | CC(C)(C)OC(=O)N(C(=O)C(F)(F)F)c1c(Cl)cc(C(F)(F)F)cc1Cl [GMR151] | 32% |  | 0% |  | >5000 ng/mg | 
20 | CC(=O)N(C(C)=O)c1cccc(OC(F)(F)F)c1 [GMR159] | −26% | ~1000 ng/mg | 19% | >1000 ng/mg |  | 
21 | CCC(=O)N(C(=O)CC)c1cccc(OC(F)(F)F)c1 [GMR161] | 74% |  | 72% |  |  | 1 h Repellency EC50, μg/cm^2 ([1]; 1 h): 36 μg/cm^2; 24 h LC50, μg/cm^2 [7]: 52 μg/cm^2
22 | O=C(CCl)Nc1ccccc1C(F)(F)F [MTFI-2-1A] | 94% |  | 100% |  |  | 1 h Repellency EC50, μg/cm^2 ([1]; 1 h): 14 μg/cm^2; 24 h LC50, μg/cm^2 [7]: 14 μg/cm^2
23 | Cc1ccccc1C(=O)Nc1cc(C(F)(F)F)cc(C(F)(F)F)c1 [MTFI-3-1E] | 6% |  | 7% |  |  | vapor repellency / mortality, statement in words (Example 8) [1]: poor results
24 | CC(=O)Nc1ccccc1C(F)(F)F [MTFI-3-2A] | 80% |  | 22% |  |  | 
25 | O=C(Nc1cc(F)c(F)c(F)c1F)C(F)F [MTFI-5-4A] | 68% |  | 0% |  |  | 
26 | O=C(Nc1cc(F)c(F)c(F)c1F)C(F)(F)C(F)(F)C(F)(F)F [MTFI-5-4E] | 56% |  | 6% |  |  | 
27 | C=CCCC(=O)Nc1ccccc1C(F)(F)F [MTFI-5-5D] | 56% |  | 6% |  |  | 
28 | O=C(CBr)Nc1ccccc1C(F)(F)F [MTFI-5-5E] | 62% |  | 60% |  |  | 
29 | O=C(CC1CC1)Nc1cccc(C(F)(F)F)c1 [MTFI-5-6C] | 50% |  | 0% |  |  | 
30 | CCCCC(=O)Nc1ccccc1CCCC [MTFI-5-8A] | 38% |  | 6% |  |  | 
31 | CCCCC(=O)Nc1ccccc1OC(F)(F)F [MTFI-5-8B] | 96% |  | 13% |  |  | 1 h Repellency EC50, μg/cm^2 ([1]; 1 h): 11 μg/cm^2
32 | O=S(=O)(Nc1c(Cl)cc(C(F)(F)F)cc1Cl)C(F)(F)F [MTFI-5-10A] | 0% |  | 0% |  |  | 
33 | CNC(=O)Oc1ccccc1OC(C)C [Propoxur] |  | 201 ng/mg |  | 3.2 ng/mg | 3.0 ng/mg | Ae. aegypti RR (resistance ratio) [2]: 0.0; An. gambiae RR (resistance ratio) [3]: 63
